Test results as given in patent US9556109B1, “Triscationic amphiphile derivative compounds having a pendent alcohol group, compositions thereof, and methods for making same” (James Madison Innovations, Inc., priority 2015, dated 2017).
Converted amounts (≈) assume the structure as drawn.

Columns and labels:
[1] = test system: S. aureus (G+); assay: Minimum inhibitory concentration (MIC), S. aureus; type: cell-based, Staphylococcus aureus
[2] = Isothermal titration calorimetry: critical aggregation concentration and degree of ionization; type: physicochemical; conditions: 37° C.; for CAC: ITC, pure water
Description: Isothermal titration calorimetry (ITC) was used to determine the critical aggregation concentration (CAC) and the degree of ionization at 37° C. associated with aggregate formation for each amphiphile for the M-E series, as shown in Table 1.
A Nano ITC was used to measure the heat change associated with the deaggregation of amphiphiles via power compensation. A concentrated aqueous solution of amphiphile (>>CAC) was titrated into a thermally controlled sample cell, initially containing pure water, in a series of discrete injections. Isothermal titration calorimetry was used to determine the critical aggregation concentration (CAC).
CAC and ΔHagg were determined using a Nano-ITC (TA-Instruments). Prior to each experiment the sample cell was washed with dH2O (300 mL), ethanol (100 mL), dH2O (300 mL) and nanopure water (200 mL). Next, 950 μL of nanopure water was added to the sample cell. A concentrated aqueous solution (>>CAC) of amphiphile was prepared and equilibrated at 37° C. A 250 μL syringe was filled with the aqueous solution, and loaded into the Nano ITC. Multiple single injections in aliquots of 5 μL were injected into the sample cell with time intervals varying from 300 s to 1400 s. Samples were continuously stirred (300 rpm) throughout the titration. The Nano-Analyze program (TA-Instruments) was used to analyze the data. CAC and ΔHagg values reported are the average of two or more repeat experiments for each amphiphile.

[3] = test system: S. agalactiae (G+); assay: Minimum inhibitory concentration (MIC), S. agalactiae; type: cell-based, Streptococcus agalactiae; conditions: Experiment 2, Table 3
[4] = test system: E. coli (G−); assay: Minimum inhibitory concentration (MIC), E. coli; type: cell-based, Escherichia coli
[5] = test system: B. anthracis (G+); type: cell-based; conditions: Experiment 2, Table 3
[6] = test system: B. subtilis (G+); type: cell-based; conditions: Experiment 2, Table 3
[7] = test system: E. faecalis (G+); assay: Minimum inhibitory concentration (MIC), E. faecalis; type: cell-based, Enterococcus faecalis; conditions: Experiment 2, Table 3
[8] = test system: P. aeruginosa (G−); assay: Minimum inhibitory concentration (MIC), P. aeruginosa; type: cell-based, Pseudomonas aeruginosa
[9] = test system: Pa2 (G−); assay: Minimum inhibitory concentration (MIC), Pa2; conditions: Experiment 1, Table 2
[10] = test system: Pa1 (G−); assay: Minimum inhibitory concentration (MIC), Pa1; conditions: Experiment 1, Table 2
[11] = test system: Gram-negative bacteria; assay: MIC, summary for Gram-negative bacteria; type: cell-based; conditions: text summary over tested strains
[12] = test system: Pseudomonas aeruginosa biofilm; assay: Crystal Violet Biofilm Disruption Assay; type: cell-based; conditions: for Max % disruption: over 250-2 μM
Description: A Crystal Violet Biofilm Disruption Assay was adapted from the techniques described in Bendouah, et al. 2006, Biofilm formation by Staphylococcus aureus and Pseudomonas aeruginosa is associated with an unfavorable evolution after surgery for chronic sinusitis and nasal polyposis, Otolaryngol. […] Bacteriol. 193 (20):5616-22. doi: 10.1128/JB.05534-11, which are incorporated by reference in their entirety. Applicants' adapted assay was performed as follows: • 1. Bacterial growth: […] (120 RPM in shaking incubator) for 24 hours • 2. Working stock: Overnight liquid culture diluted down to a bacterial concentration of approximately 5×10^6 CFU/mL in fresh LB • 3. Plate inoculation: Sterile 96-well microtiter plate inoculated with working stock: […] Plate covered with plastic cover, parafilm wrapped around edges; Incubate 24 hours at 37 degrees C. (stationary incubator) to establish biofilm • 4. Treatment: Row A and B: 100 μL sterile PBS (blank and negative control for disruption, respectively); […] Plate covered, wrapped with fresh parafilm, incubated at 37 degrees C. for 24 hours • 5. Staining and quantification: Plate rinsed twice with 1×PBS and allowed to dry; Wells stained with 100 μL 0.1% Crystal Violet dye for 15 minutes, excess rinsed off with gentle running dI water, allowed to dry; Stain dissolved in 100 μL 95% ethanol per well for 1 hour; Ethanol/CV solution transferred to fresh 96-well plate; Plate read at 570 nm on spectrophotometer plate reader; Values for rows C-H compared to row B (neg. control for disruption) to obtain % biofilm disruption at each concentration.

[13] = test system: Gram-positive bacteria; assay: MIC, summary for Gram-positive bacteria; type: cell-based; conditions: text summary over tested strains
[14] = test system: P. aeruginosa (G−); conditions: comparison values of known antibiotics; cited from earlier work

In the case of CCCCCCCCCC[N+](C)(C)Cc1cc(C[N+](C)(C)CCO)cc(C[N+](C)(C)CCCCCCCCCC)c1.[Br-].[Br-].[Br-] [Compound 2], the “MIC S. aureus (G+)” value ([1]; Experiment 2, Table 3) is reported as 125 µM, the “Degree of Ionization” value [2] is reported as 0.24 and the CAC [2] is reported as 9.5 mM. For the same compound, the “MIC S. agalactiae (G+)” value [3] was 4 µM, the “MIC E. coli (G−)” value ([4]; Experiment 2, Table 3) was 125 µM and the “MIC B. anthracis (G+)” value [5] was 4 µM. For the same compound, the “MIC B. subtilis (G+)” value [6] was 16 µM, the “MIC E. faecalis (G+)” value [7] was 4 µM and the “MIC P. aeruginosa (G−)” value ([8]; Experiment 2, Table 3) was 250 µM.
In the case of CCCCCCCCCCCCCCCC[N+](C)(C)Cc1cc(C[N+](C)(C)CCO)cc(C[N+](C)(C)CCCCCCCCCCCCCCCC)c1.[Br-].[Br-].[Br-] [Compound 5], the “MIC S. aureus (G+)” value ([1]; Experiment 1, Table 2) is reported as 63 µM, the “MIC S. aureus (G+)” value ([1]; Experiment 2, Table 3) is reported as 63 µM and the “Degree of Ionization” value [2] is reported as 0.15. The CAC [2] was 0.12 mM, the “MIC S. agalactiae (G+)” value [3] was over 250 µM and the “MIC E. coli (G−)” value ([4]; Experiment 1, Table 2) was 63 µM. The “MIC E. coli (G−)” value ([4]; Experiment 2, Table 3) was 63 µM, the “MIC B. anthracis (G+)” value [5] was over 250 µM and the “MIC B. subtilis (G+)” value [6] was over 250 µM. For the same compound, the “MIC E. faecalis (G+)” value [7] was 63 µM, the “MIC Pa2 (G−)” value [9] was over 250 µM and the “MIC Pa1 (G−)” value [10] was over 250 µM. The “MIC P. aeruginosa (G−)” value ([8]; Experiment 1, Table 2) was 125 µM and the “MIC P. aeruginosa (G−)” value ([8]; Experiment 2, Table 3) was 125 µM.
For CCCCCCCCCCCC[N+](C)(C)Cc1cc(C[N+](C)(C)CCO)cc(C[N+](C)(C)CCCCCCCCCCCC)c1.[Br-].[Br-].[Br-] [Compound 3], the “MIC for Gram-negative bacteria” value [11] was 4 to 8 µM, the “MIC S. aureus (G+)” value ([1]; Experiment 1, Table 2) was 4 µM and the “MIC S. aureus (G+)” value ([1]; Experiment 2, Table 3) was 4 µM. For the same compound, the “Degree of Ionization” value [2] was 0.20, the CAC [2] was 1.9 mM and the “MIC S. agalactiae (G+)” value [3] was 2 µM. For the same compound, the “MIC E. coli (G−)” value ([4]; Experiment 1, Table 2) was 4 µM, the “MIC E. coli (G−)” value ([4]; Experiment 2, Table 3) was 4 µM and the “Min conc. >50% disruption” value [12] was 63 µM. For the same compound, the “% disruption average” value ([12]; 2 μM) was 0%, the “% disruption trial 1” value ([12]; 2 μM) was 0% and the “% disruption trial 2” value ([12]; 2 μM) was 0%. The “% disruption average” value ([12]; 4 μM) was 5.12%, the “% disruption trial 1” value ([12]; 4 μM) was 1.759% and the “% disruption trial 2” value ([12]; 4 μM) was 8.481%. The “% disruption average” value ([12]; 8 μM) was 13.44%, the “% disruption trial 1” value ([12]; 8 μM) was 24.06% and the “% disruption trial 2” value ([12]; 8 μM) was 2.817%. For the same compound, the “% disruption average” value ([12]; 16 μM) was 30.79%, the “% disruption trial 1” value ([12]; 16 μM) was 47.34% and the “% disruption trial 2” value ([12]; 16 μM) was 14.23%. The “% disruption average” value ([12]; 31 μM) was 46.0133%, the “% disruption trial 1” value ([12]; 31 μM) was 61.1% and the “% disruption trial 2” value ([12]; 31 μM) was 30.93%. For the same compound, the “% disruption average” value ([12]; 63 μM) was 68.14%, the “% disruption trial 1” value ([12]; 63 μM) was 72.05% and the “% disruption trial 2” value ([12]; 63 μM) was 64.22%. The “% disruption average” value ([12]; 125 μM) was 65.66%, the “% disruption trial 1” value ([12]; 125 μM) was 65.04% and the “% disruption trial 2” value ([12]; 125 μM) was 66.29%. The “% disruption average” value ([12]; 250 μM) was 66.48%, the “% disruption trial 1” value ([12]; 250 μM) was 67.34% and the “% disruption trial 2” value ([12]; 250 μM) was 65.61%. For the same compound, the Max % disruption [12] was 68%, the “MIC B. anthracis (G+)” value [5] was 2 µM and the “MIC B. subtilis (G+)” value [6] was 4 µM. The “MIC E. faecalis (G+)” value [7] was 2 µM, the “MIC for Gram-positive bacteria” value [13] was 4 µM and the “MIC Pa2 (G−)” value [9] was 8 µM. For the same compound, the “MIC Pa1 (G−)” value [10] was 8 µM, the “MIC P. aeruginosa (G−)” value ([8]; Experiment 1, Table 2) was 8 µM and the “MIC P. aeruginosa (G−)” value ([8]; Experiment 2, Table 3) was 8 µM.
In the case of NC[C@H]1O[C@H](O[C@H]2[C@H](O)[C@@H](O[C@H]3O[C@H](CO)[C@@H](O)[C@H](N)[C@H]3O)[C@H](N)C[C@@H]2N)[C@H](N)C[C@@H]1O [Tobramycin, reference compound], the “Min conc. >50% disruption” value [12] is reported as 31 µM, the “% disruption average” value ([12]; 2 μM) is reported as 6.808% and the “% disruption trial 1” value ([12]; 2 μM) is reported as 0%. For the same compound, the “% disruption trial 2” value ([12]; 2 μM) was 13.62%, the “% disruption average” value ([12]; 4 μM) was 27.66% and the “% disruption trial 1” value ([12]; 4 μM) was 0%. For the same compound, the “% disruption trial 2” value ([12]; 4 μM) was 55.3151%, the “% disruption average” value ([12]; 8 μM) was 32.13% and the “% disruption trial 1” value ([12]; 8 μM) was 15.46%. The “% disruption trial 2” value ([12]; 8 μM) was 48.79%, the “% disruption average” value ([12]; 16 μM) was 13.9806% and the “% disruption trial 1” value ([12]; 16 μM) was 0%. For the same compound, the “% disruption trial 2” value ([12]; 16 μM) was 27.9612%, the “% disruption average” value ([12]; 31 μM) was 61.0098% and the “% disruption trial 1” value ([12]; 31 μM) was 51.89%. The “% disruption trial 2” value ([12]; 31 μM) was 70.13%, the “% disruption average” value ([12]; 63 μM) was 60.79% and the “% disruption trial 1” value ([12]; 63 μM) was 53.5149%. The “% disruption trial 2” value ([12]; 63 μM) was 68.07%, the “% disruption average” value ([12]; 125 μM) was 43.07% and the “% disruption trial 1” value ([12]; 125 μM) was 34.88%. The “% disruption trial 2” value ([12]; 125 μM) was 51.26%, the “% disruption average” value ([12]; 250 μM) was 3.803% and the “% disruption trial 1” value ([12]; 250 μM) was 0%. For the same compound, the “% disruption trial 2” value ([12]; 250 μM) was 7.607%, the Max % disruption [12] was 61% and the “MIC against P. aeruginosa” value [14] was 6.4 µM (≈ 2.99 µg/mL).
With CCCCCCCCCCCCCC[N+](C)(C)Cc1cc(C[N+](C)(C)CCO)cc(C[N+](C)(C)CCCCCCCCCCCCCC)c1.[Br-].[Br-].[Br-] [Compound 4] the “MIC S. aureus (G+)” value ([1]; Experiment 1, Table 2) was 8 µM, the “MIC S. aureus (G+)” value ([1]; Experiment 2, Table 3) was 8 µM and the “Degree of Ionization” value [2] was 0.18. The CAC [2] was 0.47 mM, the “MIC S. agalactiae (G+)” value [3] was 4 µM and the “MIC E. coli (G−)” value ([4]; Experiment 1, Table 2) was 8 µM. For the same compound, the “MIC E. coli (G−)” value ([4]; Experiment 2, Table 3) was 8 µM, the “MIC B. anthracis (G+)” value [5] was 8 µM and the “MIC B. subtilis (G+)” value [6] was 8 µM. For the same compound, the “MIC E. faecalis (G+)” value [7] was 4 µM, the “MIC Pa2 (G−)” value [9] was 250 µM and the “MIC Pa1 (G−)” value [10] was 250 µM. The “MIC P. aeruginosa (G−)” value ([8]; Experiment 1, Table 2) was 125 µM and the “MIC P. aeruginosa (G−)” value ([8]; Experiment 2, Table 3) was 125 µM.
For CO/N=C(\C(=O)N[C@@H]1C(=O)N2C(C(=O)[O-])=C(C[N+]3(C)CCCC3)CS[C@H]12)c1csc(N)n1 [cefepime], the “MIC against P. aeruginosa” value [14] is given as 12.5 µM (≈ 6.01 µg/mL).
With CCCCCCCC[N+](C)(C)Cc1cc(C[N+](C)(C)CCO)cc(C[N+](C)(C)CCCCCCCC)c1.[Br-].[Br-].[Br-] [Compound 1] the “MIC S. aureus (G+)” value ([1]; Experiment 2, Table 3) was 250 µM, the “MIC S. agalactiae (G+)” value [3] was 125 µM and the “MIC E. coli (G−)” value ([4]; Experiment 2, Table 3) was over 250 µM. For the same compound, the “MIC B. anthracis (G+)” value [5] was 63 µM, the “MIC B. subtilis (G+)” value [6] was 250 µM and the “MIC E. faecalis (G+)” value [7] was 63 µM. For the same compound, the “MIC P. aeruginosa (G−)” value ([8]; Experiment 2, Table 3) was over 250 µM.
